Several values for one entry are separate records, joined by “and”; a condition that tells them apart may be missing. Identical values can stand only once.
Tests used:
(RT-)PCR reaction = assay: (RT-)PCR compatibility of test substance, reaction as a whole; assay type: biochemical
Taq polymerase = target: T1, Taq polymerase (Thermus aquaticus, UniProt P19821); assay: (RT-)qPCR with test substance added, DNA template; assay type: biochemical; settings: for maximal non-inhibiting concentration, Taq polymerase: final concentration in (RT-)PCR, QuantiNova Pathogen Mix, 40 cycles, compared to water control (Examples 1, 2)
T1 construct: purchased QIAGEN (QuantiNova Pathogen + IC Kit; QIAprep& Viral RNA UM Kit)
T1 sequence (P19821 whole entry): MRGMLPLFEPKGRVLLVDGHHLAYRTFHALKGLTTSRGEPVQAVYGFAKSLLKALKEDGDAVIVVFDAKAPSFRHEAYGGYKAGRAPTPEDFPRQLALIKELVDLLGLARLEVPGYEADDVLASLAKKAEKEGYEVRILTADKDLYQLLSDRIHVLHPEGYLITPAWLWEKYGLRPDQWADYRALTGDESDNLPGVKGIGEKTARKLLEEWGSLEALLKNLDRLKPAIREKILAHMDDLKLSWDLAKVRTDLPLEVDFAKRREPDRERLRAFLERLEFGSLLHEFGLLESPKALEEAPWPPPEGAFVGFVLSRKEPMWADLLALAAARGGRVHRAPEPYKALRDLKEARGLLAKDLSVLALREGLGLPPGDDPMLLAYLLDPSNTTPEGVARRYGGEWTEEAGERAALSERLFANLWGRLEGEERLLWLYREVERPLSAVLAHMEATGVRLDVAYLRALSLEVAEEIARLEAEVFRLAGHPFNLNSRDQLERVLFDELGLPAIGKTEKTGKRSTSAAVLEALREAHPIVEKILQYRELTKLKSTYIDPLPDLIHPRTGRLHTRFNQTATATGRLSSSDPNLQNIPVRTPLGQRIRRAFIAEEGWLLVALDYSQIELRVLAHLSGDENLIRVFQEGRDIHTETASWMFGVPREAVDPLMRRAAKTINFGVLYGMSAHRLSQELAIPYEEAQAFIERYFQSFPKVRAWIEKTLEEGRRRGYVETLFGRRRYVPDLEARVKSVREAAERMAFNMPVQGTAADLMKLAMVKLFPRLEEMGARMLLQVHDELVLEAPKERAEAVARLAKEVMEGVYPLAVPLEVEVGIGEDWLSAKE

Bovine coronavirus = assay: Virucidal activity test according to DIN EN 14476:2019-10, Bovine coronavirus; assay type: cell-based, Bovine coronavirus (Betacoronavirus 1); settings: for inactivation of Bovine coronavirus (in words): at the tested concentrations (Example 4); for Log10 reduction factor(s) incl. 95% confidence interval(s) against Bovine coronavirus: conc. 1% (DDAC 0.015%, Braunol povidone iodine 0.05%), initial results
Experimental: Analysis was performed by Henkel (Dusseldorf) according to the European norm DIN EN 14476:2019-10.
The following test for virucidal activity of the different test substances were performed by Henkel (Dusseldorf) according to the European norm DIN EN 14476:2019-10. The experimental conditions were identical to those in Example 3 but with a Bovine coronavirus instead of Vaccinia virus.

DNA and/or RNA viruses = assay: Virucidal suspension tests, summary statement; assay type: cell-based; settings: summary of the examples; against DNA and/or RNA viruses
[1] = tested on: N1 and N2 genes of SARS-CoV-2; assay type: biochemical
[2] = tested on: Vaccinia Virus, Elstree strain, ATCC VR1549; assay type: cell-based
[3] = tested on: reverse transcriptase (RT); assay: (RT-)qPCR with test substance added, RT reaction (IC RNA template); assay type: biochemical; settings: for maximal non-inhibiting concentration, RT reaction: final concentration in (RT-)PCR, QuantiNova Pathogen Mix, 40 cycles, compared to water control (Examples 1, 2)
[4] = tested on: in vitro transcribed SARS-CoV-2 genes N1 and N2; assay type: biochemical
[5] = Example 6, FIG. 6A, Tween20 at very high concentrations, Tween60 and Brij58 at much lower concentrations
[6] = Example 8, FIG. 8, substance alone, increasing concentrations, QIAprep&amp reaction mix without Extraction Buffer step
[7] = Example 7, FIG. 7, without Tween20

In the case of “polyoxyethylene(20) cetyl ether [Brij58]”, the “inhibition of the (RT-)PCR (in words)” value ((RT-)PCR reaction; [5]) is reported as “no PCR inhibition at all”.
`CCCCCCCCCC[N+](C)(C)CCCCCCCCCC.[Cl-]` [DDAC, Didecyldimethylammonium chloride] was tested, and the “maximal non-inhibiting concentration, Taq polymerase” value (Taq polymerase) was no more than 0.005%, the “inhibition of the (RT-)PCR (in words)” value ((RT-)PCR reaction; [6]) was “significant inhibition” and the “inactivation of Bovine coronavirus (in words)” value (Bovine coronavirus) was “effectively inactivated”. For the same molecule, the “Log10 reduction factor(s) incl. 95% confidence interval(s) against Bovine coronavirus” value (Bovine coronavirus; contact time 15 min) was greater than 5.13 ± 0.25 Log10, the “Log10 reduction factor(s) incl. 95% confidence interval(s) against Bovine coronavirus” value (Bovine coronavirus; contact time 60 min) was greater than 4.88 ± 0.25 Log10 and the “reduction of the virus titer” value (DNA and/or RNA viruses) was “about 4 log10”. The “inhibition of the (RT-)PCR by substance in transport/storage medium (in words)” value [1] was “no inhibition”, the “reduction of the virus titer” value [2] was 4 log10 grades and the “virucidal activity against Vaccinia virus (in words)” value (shortened to “virucidal activity”) [2] was “strong virucidal activity”. For the same molecule, the “maximal non-inhibiting concentration, RT reaction” value [3] was no more than 0.005%.
`CCCCCCCCCCCC[N+](C)(C)[O-]` [LDAO, Lauryldimethylamin-N-oxide (N,N-Dimethyldodecylamine N-oxide)] was tested, and the “maximal non-inhibiting concentration, Taq polymerase” value (Taq polymerase) was 0.035%, the “inhibition of the RT reaction (in words)” value ([3]; LDAO at 0.035%, Ecosurf EH-9 at all tested concentrations (0.035-0.7%), compared to water control) was “slight but acceptable inhibition” and the “maximal non-inhibiting concentration, RT reaction” value [3] was 0.035%.
For `O=C(O)CCP(CCC(=O)O)CCC(=O)O` [TCEP, Tris-(2-carboxyethyl)-phosphin], the “concentration at which Ct-values increase again” value [4] was no less than 2 mM, the “concentration that neutralizes the inhibitory effect of 0.5% povidone iodine in RT-PCR” value [4] was 5 mM and the “decrease of the Ct-value” [4] was “about 2”.
“polyoxyethylene (20) sorbitan monostearate [Tween60]” was tested, and the “inhibition of the (RT-)PCR (in words)” value ((RT-)PCR reaction; [5]) was “no PCR inhibition at all”.
povidone iodine was tested, and the “maximal non-inhibiting concentration, Taq polymerase” value (Taq polymerase) was no more than 0.0175%, the “inhibition of the (RT-)PCR (in words)” value [4] was “significant inhibition” and the “inactivation of Bovine coronavirus (in words)” value (Bovine coronavirus) was “effectively inactivated”. For the same molecule, the “Log10 reduction factor(s) incl. 95% confidence interval(s) against Bovine coronavirus” value (Bovine coronavirus; contact time 15 min) was greater than 6.13 ± 0.25 Log10, the “Log10 reduction factor(s) incl. 95% confidence interval(s) against Bovine coronavirus” value (Bovine coronavirus; contact time 60 min) was greater than 5.88 ± 0.25 Log10 and the “reduction of the virus titer” value (DNA and/or RNA viruses) was “about 4 log10”. The “reduction of the virus titer” value [2] was 4 log10 grades, the “virucidal activity” value [2] was “strong virucidal activity” and the “maximal non-inhibiting concentration, RT reaction” value [3] was no more than 0.0175%.
With `CCCCCCCCCCCCOS(=O)(=O)[O-].[Na+]` [SDS, Sodium dodecyl sulfate] the “concentration from which Ct-values increase, Taq polymerase” value (Taq polymerase; [7]) was no less than 0.125%, the “inhibition of the (RT-)PCR (in words)” value ((RT-)PCR reaction; [6]) was “significant inhibition” and the “concentration from which Ct-values increase, reverse transcriptase” value [3, 7] was no less than 0.03125%.
`CCCCCCCCCCCC(=O)OCCOCCOCCOCCOCCOCCOCCOCCOCCOCCOCCOCCOCCOCCOCCOCCOCCOCCOCCOCCOCC(OCCOCCOCCOCCOCCOCCOCCOCCOCCOCCOCCOCCOCCOCCOCCOCCOCCOCCOCCOCCO)C1OCC(OCCOCCOCCOCCOCCOCCOCCOCCOCCOCCOCCOCCOCCOCCOCCOCCOCCOCCOCCOCCO)C1OCCOCCOCCOCCOCCOCCOCCOCCOCCOCCOCCOCCOCCOCCOCCOCCOCCOCCOCCOCCO` (centres unmarked) [Tween20, polyoxyethylene (20) sorbitan monolaurate] was tested, and the “counteracting effect on SDS inhibition of the Taq polymerase (in words)” value (Taq polymerase; 3% and 5% Tween20 in the PCR, even at the highest concentrations of SDS tested) was “reactivates the activity”, the “maximal non-inhibiting concentration, Taq polymerase” value (Taq polymerase) was no more than 0.35% and the “enzyme inhibition in (RT-)PCR (in words)” value ((RT-)PCR reaction; 0.7% final concentration in (RT-)PCR) was “some inhibition”. The “inhibition of the (RT-)PCR (in words)” value ((RT-)PCR reaction; [5]) was “only a moderate inhibition”, the “log10 reduction factor(s) incl. 95% confidence interval(s) against Vaccinia Virus, Elstree strain, ATCC VR1549, with clean conditions” value [2] was 2.00 ± 0.54 log10 and 1.88 ± 0.41 log10 and the “virucidal activity” value [2] was “least reduction of the virus titer”. For the same molecule, the “counteracting effect on SDS inhibition of the reverse transcription (in words)” value ([3]; 3% and 5% Tween20 in the PCR, depending on the Tween20 concentration) was “significantly reduced” and the “maximal non-inhibiting concentration, RT reaction” value [3] was no more than 0.35%.
